Measurements from patent US6818662B2, “Pharmaceutical composition” (Taisho Pharmaceutical Co., Ltd., priority 2002, dated 2004).
≈ marks a conversion by molar mass, not a printed value.

Columns and labels:
Type in all cases: physicochemical
[1] = Solubility in vehicles for micelles, co-solvents and lipid emulsion preparations
Description: (§1) The present invention can be disclosed in more detail as follows. Since N-(3-chloro-4-morpholin-4-yl)phenyl-N′-hydroxyimidoformamidine was unstable in an acidic solution, solubilization by forming it into an acidic salt thereof was not proper. Furthermore, the solubility of N-(3-chloro-4-morpholin-4-yl)phenyl-N′-hydroxyimidoformamidine in 5% Tween 80, 10% polyethylene glycol, soybean oil and olive oil, which were used for forming it into micelles, co-solvents and lipid emulsion preparations, was not more than 0.5 mg/mL at 25° C. and was insufficient for forming it into these micelles, co-solvents and lipid emulsion preparations. […] Based on this unpredictable finding in which in the case of the sulfobutyl ether β-cyclodextrin solution, the drug is stable over light exposure and thus, it is convenient for actual use without a special care such as shading, the present invention has been accomplished.

[2] = Stability in acidic solution
Description: as §1

[3] = Solubilization test; details: 25° C.
Experimental: An excess amount of N-(3-chloro-4-morpholin-4-yl)phenyl-N′-hydroxyimidoformamidine was added to 10% and 20% aqueous solutions of sulfobutyl ether β-cyclodextrin sodium salt (Captisol (trade name); average substitution degree is about 7) and purified water as a control, respectively. After shaking on a water bath adjusted at 25° C. for one day, the solubility of the drug was measured.

ON=CNc1ccc(N2CCOCC2)c(Cl)c1 [N-(3-chloro-4-morpholin-4-yl)phenyl-N′-hydroxyimidoformamidine]
solubility ([1]; 5% Tween 80, 25° C.): not more than 0.5 mg/mL
solubility ([1]; 10% polyethylene glycol, 25° C.): not more than 0.5 mg/mL
solubility ([1]; olive oil, 25° C.): not more than 0.5 mg/mL
solubility ([1]; soybean oil, 25° C.): not more than 0.5 mg/mL
stability in an acidic solution [2]: unstable
solubility ([3]; 10% aqueous solution of sulfobutyl ether β-cyclodextrin sodium salt): 3.57 mg/mL
solubility ([3]; 20% aqueous solution of sulfobutyl ether β-cyclodextrin sodium salt): 7.67 mg/mL
solubility ([3]; purified water (control), shaking one day): 0.08 mg/mL (≈ 313 µM)
